Key:
UV-induced pigmentation = conditions: topical application of 0.5%; cited from earlier work
melan-a cells = assay: Melanin assay in cultured murine melanocytes (melan-a); type: cell-based; conditions: 72 hours; for % of control remaining @ 1 μM / % of control remaining @ 5 μM: melanin, melan-a cells
Experimental: The Spectrum Collection library consisting of 2000 drug compounds or natural products was screened to identify novel pigmentation inhibitors or stimulators in cultured murine melanocytes (melan-a). Compounds were dissolved in dimethylsulfoxide (DMSO) to a final concentration of 10 mM. Screening was performed with cultured melanocytes in 24-well plates followed by melanin assay (see below). A minimum change of 50% in melanin formation was established as significant for a pigmentation inhibitor or stimulator. DMSO was used as a negative control and the widely used depigmenting agent, hydroquinone, was used as a positive control on every plate. […] Melan-a cells were plated at 5×10^4 cells per well in 1 ml of culture media in 24-well plates the day before adding the library compounds. All compounds were added at the indicated final concentrations. Cells were harvested after 72 hours of incubation, and melanin assay was performed. For the primary and secondary screening, cells were harvested and dissolved in 200 μl of 2N NaOH in 20% DMSO at 70° C. A 180-μl aliquot of the resulting solution was measured for absorbance at 490 nm. Cells are harvested in extraction buffer (1% Triton X-100, 50 mM Tris, 2 mM EDTA, 150 mM NaCl, pH 7.5) containing a complete protease inhibitor cocktail (Roche). The lysates were centrifuged at 14,000 rpm for 10 minutes at 4° C. BCA protein assay kit (Pierce) was used to measure the protein concentrations of the supernatants, and bovine serum albumin was used as a standard. […] A 180-μl aliquot of the resulting solution was measured for absorbance at 490 nm. The melanin contents were normalized to the total amount of protein. The IC50 value for inhibition of cellular melanin synthesis for conessine was determined by culturing melan-a cells with various concentrations of conessine for 72 hours. Briefly, melan-a cells were plated at 5×10^4 cells per well in 1 ml of culture media in 24-well plates the day before adding conessine. Conessine was added at the indicated final concentrations. DMSO was used as a negative control. Cells were harvested after 72 hours of incubation, and spectrophotometric melanin assay was performed on cell pellets. The melanin contents were normalized to the total amount of protein. Cell viability was determined by using the CellTiter 96 aqueous nonradioactive cell proliferation assay. […] Licorice extract was tested under similar conditions as conessine for its ability to decrease melanin synthesis in melan-a cells (FIG. 11c). Melan-a cells were plated at 5×10^4 cells per well in 1 ml of culture media in 24-well plates the day before adding Licorice extract. 70% ethanol was used as control and the Licorice extract was diluted in cell culture media at the indicated concentrations. […] Cells were harvested after 72 hours of incubation, and spectrophotometric melanin assay was performed on cell pellets. The melanin contents were normalized to the total amount of protein. Cell viability was determined by using the CellTiter 96 aqueous nonradioactive cell proliferation assay.

| SMILES | inhibition of UV-induced pigmentation (UV-induced pigmentation) | % of control remaining @ 1 μM (melan-a cells) | % of control remaining @ 5 μM (melan-a cells) | effect on melanin synthesis in melan-a cells (melan-a cells; indicated concentrations) |
| --- | --- | --- | --- | --- |
| CC1(C)C=Cc2c(ccc3c2OC[C@@H](c2ccc(O)cc2O)C3)O1 [glabridin] | can inhibit the UV-induced pigmentation | – | – | – |
| C[C@H]1C2CCC3[C@@H]4CC=C5C[C@@H](N(C)C)CC[C@]5(C)C4CC[C@@]32CN1C (mixture of isomers) [Compound 2, Con-5-enine, 3β-(dimethylamino)-, (±)-(8Cl) (Registry No: 14546-12-4)] | – | 78.4 % of control | 38.5 % of control | – |
| Oc1ccc(O)cc1 [hydroquinone, reference compound] | – | – | – | significantly inhibited melanogenesis in a dose-dependent manner |
| CC1C2CCC3C4CC=C5CC(N(C)C)CCC5(C)C4CCC32CN1C (stereo not drawn) [Compound 3, N,N-Dimethylcon-5-enin-3-amine] | – | 59.2 % of control | 28.4 % of control | – |

— patent publication US20100040568A1, “Steroidal compounds as melanogenesis modifiers and uses thereof” (SkinMedica, Inc., priority 2008, published 2010)
